The values that follow are results of earlier work, collected in patent US8841297B2, “Phenylimidazole derivative as PDE10A enzyme inhibitor” (H. Lundbeck A/S, priority 2009, dated 2014).

The structures appear in SMILES notation.

Series [1] concerns cataleptic effect of haloperidol. Conditions: rats, cited from earlier work.
Series [2] deals with amphetamine induced hyperactivity. Conditions: rats; cited from earlier work.
Series [3] has as its system PCP induced hyperactivity. The following applies: rats; cited from earlier work.

With `COc1ccc(Cc2nccc3cc(OC)c(OC)cc23)cc1OC` [Papaverine, papaverine], in series [1] (papaverine alone), the “catalepsy on its own” value was “did not cause catalepsy on its own”. Further, the “effect on the cataleptic effect of haloperidol” value in series [1] (together with haloperidol) is “potentiated the cataleptic effect”. The “reduction of amphetamine induced hyperactivity” value in series [2] is given as “insignificant”. In addition, in series [3], the “effect on hyperactivity induced by PCP” value is given as “reduced hyperactivity”.
